Key:
Test in all cases: KinomeScan
Format in all cases: binding
Details in all cases: read-out: % Ctrl @ 10000 nM
ABL1(M351T) = target: T1, ABL1(M351T) (Homo sapiens, UniProt P00519, M351T)
T1 construct: host or cells: E. coli (BL21-derived), T7 phage lysate
Outline: (§1)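 Competition binding of kinase-tagged T7 phage (BL21-derived E. coli lysates) to immobilized ligand on biotin-blocked beads; test compound diluted from 40× DMSO stocks, 2.5% DMSO in no-compound controls. Bound phage eluted and titer quantified by qPCR.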

ACVR2A = target: T2, ACVR2A (Homo sapiens, UniProt P27037)
T2 construct: host or cells: E. coli (BL21-derived), T7 phage lysate
Outline: as §1

BIKE = target: T3, BIKE (Homo sapiens, UniProt Q9NSY1)
T3 construct: host or cells: E. coli host derived from BL21
Outline: as §1

BMPR1A = target: T4, BMPR1A (Homo sapiens, UniProt P36894)
T4 construct: host or cells: E. coli host derived from BL21
Outline: as §1

BMPR1B = target: T5, BMPR1B (Homo sapiens, UniProt O00238)
T5 construct: host or cells: E. coli host derived from BL21
Outline: as §1

CAMK1G = target: T6, CAMK1G (Homo sapiens, UniProt Q96NX5)
T6 construct: host or cells: E. coli host derived from BL21
Outline: as §1

CAMK4 = target: T7, CAMK4 (Homo sapiens, UniProt Q16566)
T7 construct: host or cells: T7 phage in E. coli host derived from BL21
Outline: as §1

CDK7 = target: T8, CDK7 (Homo sapiens, UniProt P50613)
T8 construct: host or cells: T7 phage in E. coli host derived from BL21
Outline: as §1

CSNK1G1 = target: T9, CSNK1G1 (Homo sapiens, UniProt Q9HCP0)
T9 construct: purchased Ambit Biosciences Corp (KinomeScan); host or cells: T7 phage in E. coli host derived from BL21
Outline: as §1

CSNK1G3 = target: T10, CSNK1G3 (Homo sapiens, UniProt Q9Y6M4)
T10 construct: purchased Ambit Biosciences Corp (KinomeScan); host or cells: T7 phage in E. coli host derived from BL21
Outline: as §1

DAPK2 = target: T11, DAPK2 (Homo sapiens, UniProt Q9UIK4)
T11 construct: purchased Ambit Biosciences Corp (KinomeScan); host or cells: T7 phage in E. coli host derived from BL21
Outline: as §1

EGFR(L747-T751del, Sins) = target: T12, EGFR(L747-T751del, Sins) (Homo sapiens, UniProt P00533, DEL747-750/T751S)
T12 construct: purchased Ambit Biosciences Corp; host or cells: T7 phage in E. coli host derived from BL21
Outline: as §1

EGFR(S752-1759del) = target: T13, EGFR(S752-1759del) (Homo sapiens, UniProt P00533, DEL752-759)
T13 construct: purchased Ambit Biosciences Corp; host or cells: T7 phage in E. coli host derived from BL21
Outline: as §1

EPHA2 = target: T14, EPHA2 (Homo sapiens, UniProt P29317)
T14 construct: purchased Ambit Biosciences Corp; host or cells: T7 phage in E. coli host derived from BL21
Outline: as §1

EPHA8 = target: T15, EPHA8 (Homo sapiens, UniProt P29322)
T15 construct: purchased Ambit Biosciences Corp; host or cells: T7 phage in E. coli host derived from BL21
Outline: as §1

IRAK3 = target: T16, IRAK3 (Homo sapiens, UniProt Q9Y616)
T16 construct: host or cells: T7 phage grown in E. coli host derived from BL21
Outline: as §1

[1] = target: T17, JAK2(JH1domain- catalytic) (Homo sapiens, UniProt O60674)
T17 construct: JAK2(JH1domain- catalytic); host or cells: T7 phage grown in E. coli host derived from BL21
Outline: as §1

MAPKAPK5 = target: T18, MAPKAPK5 (Homo sapiens, UniProt Q8IW41)
T18 construct: host or cells: E. coli host derived from the BL21 strain, infected with T7 phage
Outline: as §1

MET = target: T19, MET (Homo sapiens, UniProt P08581)
T19 construct: host or cells: E. coli host derived from the BL21 strain, infected with T7 phage
Outline: as §1

NEK6 = target: T20, NEK6 (Homo sapiens, UniProt Q9HC98)
T20 construct: host or cells: T7 phage grown in E. coli host derived from BL21
Outline: as §1

NEK9 = target: T21, NEK9 (Homo sapiens, UniProt Q8TD19)
T21 construct: host or cells: T7 phage grown in E. coli host derived from BL21
Outline: as §1

PAK1 = target: T22, PAK1 (Homo sapiens, UniProt Q13153)
T22 construct: host or cells: E. coli host derived from BL21, infected with T7 phage
Outline: as §1

PIP5K1A = target: T23, PIP5K1A (Homo sapiens, UniProt Q99755)
T23 construct: host or cells: T7 phage in E. coli host derived from BL21
Outline: as §1

PKMYT1 = target: T24, PKMYT1 (Homo sapiens, UniProt Q99640)
T24 construct: host or cells: T7 phage in E. coli host derived from BL21
Outline: as §1

RET(V804L) = target: T25, RET(V804L) (Homo sapiens, UniProt P07949, V804L)
T25 construct: host or cells: E. coli host derived from BL21, T7 phage display
Outline: as §1

RIOK3 = target: T26, RIOK3 (Homo sapiens, UniProt O14730)
T26 construct: host or cells: E. coli host derived from BL21, T7 phage display
Outline: as §1

RIPK1 = target: T27, RIPK1 (Homo sapiens, UniProt Q13546)
T27 construct: host or cells: E. coli host derived from BL21, T7 phage display
Outline: as §1

[2] = target: T28, RPS6KA1(Kin.Dom.-2-C-terminal) (Homo sapiens, UniProt Q15418)
T28 construct: RPS6KA1(Kin.Dom.-2-C-terminal); host or cells: E. coli host derived from BL21, T7 phage display
Outline: as §1

SLK = target: T29, SLK (Homo sapiens, UniProt Q9H2G2)
T29 construct: host or cells: T7 phage grown in E. coli (BL21-derived)
Outline: as §1

STK35 = target: T30, STK35 (Homo sapiens, UniProt Q8TDR2)
T30 construct: host or cells: T7 phage grown in E. coli (BL21-derived)
Outline: as §1

ULK1 = target: T31, ULK1 (Homo sapiens, UniProt O75385)
T31 construct: host or cells: E. coli host derived from BL21, T7 phage
Outline: as §1

YANK2 = target: T32, YANK2 (Homo sapiens, UniProt Q9NY57)
T32 construct: host or cells: E. coli host derived from BL21, T7 phage
Outline: as §1

T25 sequence (P07949 29-1114 V804L): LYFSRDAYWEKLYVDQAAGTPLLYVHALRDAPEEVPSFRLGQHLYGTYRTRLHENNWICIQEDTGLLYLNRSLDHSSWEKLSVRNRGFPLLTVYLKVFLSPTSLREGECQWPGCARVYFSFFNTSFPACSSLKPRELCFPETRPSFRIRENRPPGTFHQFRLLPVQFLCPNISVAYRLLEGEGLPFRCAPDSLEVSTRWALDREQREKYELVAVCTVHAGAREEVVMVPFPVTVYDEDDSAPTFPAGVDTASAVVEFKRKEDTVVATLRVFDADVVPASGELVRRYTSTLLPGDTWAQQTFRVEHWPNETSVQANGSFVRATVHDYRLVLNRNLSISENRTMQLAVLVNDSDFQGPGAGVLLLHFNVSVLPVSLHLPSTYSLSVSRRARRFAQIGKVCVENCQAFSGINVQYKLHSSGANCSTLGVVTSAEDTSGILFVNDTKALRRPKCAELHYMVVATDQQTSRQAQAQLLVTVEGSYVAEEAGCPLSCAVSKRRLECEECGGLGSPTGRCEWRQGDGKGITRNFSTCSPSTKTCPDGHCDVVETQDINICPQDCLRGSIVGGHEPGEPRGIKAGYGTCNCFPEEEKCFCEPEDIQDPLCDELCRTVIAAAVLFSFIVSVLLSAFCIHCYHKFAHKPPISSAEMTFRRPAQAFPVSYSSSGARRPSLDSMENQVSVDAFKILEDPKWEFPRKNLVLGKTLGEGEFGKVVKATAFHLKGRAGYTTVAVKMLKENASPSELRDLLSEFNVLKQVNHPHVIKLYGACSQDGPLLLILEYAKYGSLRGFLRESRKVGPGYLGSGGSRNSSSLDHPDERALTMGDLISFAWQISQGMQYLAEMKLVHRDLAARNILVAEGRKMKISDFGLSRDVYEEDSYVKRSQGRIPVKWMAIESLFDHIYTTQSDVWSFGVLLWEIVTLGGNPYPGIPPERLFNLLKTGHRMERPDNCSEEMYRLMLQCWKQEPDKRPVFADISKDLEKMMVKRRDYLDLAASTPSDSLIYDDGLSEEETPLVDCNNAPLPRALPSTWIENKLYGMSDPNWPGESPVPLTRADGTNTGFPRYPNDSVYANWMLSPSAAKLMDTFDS
T3 sequence (Q9NSY1 whole entry): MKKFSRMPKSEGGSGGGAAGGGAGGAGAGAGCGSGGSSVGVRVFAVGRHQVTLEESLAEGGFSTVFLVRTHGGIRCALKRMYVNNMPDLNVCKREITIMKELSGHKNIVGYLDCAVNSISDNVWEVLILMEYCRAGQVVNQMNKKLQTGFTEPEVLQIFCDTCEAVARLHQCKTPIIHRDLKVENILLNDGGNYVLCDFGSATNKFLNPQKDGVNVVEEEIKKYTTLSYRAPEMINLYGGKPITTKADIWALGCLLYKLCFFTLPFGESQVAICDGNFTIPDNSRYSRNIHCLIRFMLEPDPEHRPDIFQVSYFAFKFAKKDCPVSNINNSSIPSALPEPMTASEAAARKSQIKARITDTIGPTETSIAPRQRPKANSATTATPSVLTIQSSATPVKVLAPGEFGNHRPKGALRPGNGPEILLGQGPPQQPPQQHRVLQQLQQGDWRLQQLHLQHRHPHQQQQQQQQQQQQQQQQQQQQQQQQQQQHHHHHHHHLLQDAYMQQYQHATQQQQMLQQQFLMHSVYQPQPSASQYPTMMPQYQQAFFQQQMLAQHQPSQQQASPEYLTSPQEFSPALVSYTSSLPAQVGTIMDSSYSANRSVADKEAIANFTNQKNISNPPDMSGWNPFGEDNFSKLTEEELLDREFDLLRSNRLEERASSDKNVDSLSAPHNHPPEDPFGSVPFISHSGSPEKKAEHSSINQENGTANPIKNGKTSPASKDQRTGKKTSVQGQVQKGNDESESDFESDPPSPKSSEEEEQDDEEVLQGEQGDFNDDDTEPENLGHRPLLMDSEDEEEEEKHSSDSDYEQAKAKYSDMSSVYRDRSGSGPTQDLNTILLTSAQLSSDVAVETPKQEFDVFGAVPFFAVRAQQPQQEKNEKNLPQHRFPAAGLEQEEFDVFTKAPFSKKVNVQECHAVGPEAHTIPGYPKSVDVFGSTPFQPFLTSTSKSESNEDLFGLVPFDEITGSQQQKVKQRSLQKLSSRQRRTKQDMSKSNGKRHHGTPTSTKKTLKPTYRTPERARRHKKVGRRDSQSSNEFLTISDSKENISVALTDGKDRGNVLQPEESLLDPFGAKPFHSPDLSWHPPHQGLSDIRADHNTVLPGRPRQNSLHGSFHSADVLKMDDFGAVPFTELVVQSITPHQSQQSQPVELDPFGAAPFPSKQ
T28 sequence (Q15418 418-675 limits assumed): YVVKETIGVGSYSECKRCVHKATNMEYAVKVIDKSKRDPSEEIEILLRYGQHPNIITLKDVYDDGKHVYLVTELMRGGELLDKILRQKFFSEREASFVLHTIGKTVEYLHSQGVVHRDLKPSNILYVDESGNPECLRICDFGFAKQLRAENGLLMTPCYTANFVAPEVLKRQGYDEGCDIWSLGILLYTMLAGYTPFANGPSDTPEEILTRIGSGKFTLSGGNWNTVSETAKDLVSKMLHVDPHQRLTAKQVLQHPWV
T2 sequence (P27037 20-513): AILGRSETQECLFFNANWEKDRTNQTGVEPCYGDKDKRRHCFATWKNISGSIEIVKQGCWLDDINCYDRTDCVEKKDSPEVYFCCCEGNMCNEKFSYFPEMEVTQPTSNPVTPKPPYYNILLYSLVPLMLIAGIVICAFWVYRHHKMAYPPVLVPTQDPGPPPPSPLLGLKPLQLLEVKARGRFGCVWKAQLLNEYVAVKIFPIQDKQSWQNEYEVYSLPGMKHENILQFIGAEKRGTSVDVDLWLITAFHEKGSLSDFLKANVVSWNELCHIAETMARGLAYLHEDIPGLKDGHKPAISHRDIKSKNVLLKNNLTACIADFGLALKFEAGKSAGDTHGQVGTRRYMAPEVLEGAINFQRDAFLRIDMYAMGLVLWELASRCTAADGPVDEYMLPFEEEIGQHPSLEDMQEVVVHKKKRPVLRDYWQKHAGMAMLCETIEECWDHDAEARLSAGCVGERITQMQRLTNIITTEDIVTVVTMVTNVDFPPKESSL
T12 sequence (P00533 with tags, fused parts or gaps DEL747-750/T751S): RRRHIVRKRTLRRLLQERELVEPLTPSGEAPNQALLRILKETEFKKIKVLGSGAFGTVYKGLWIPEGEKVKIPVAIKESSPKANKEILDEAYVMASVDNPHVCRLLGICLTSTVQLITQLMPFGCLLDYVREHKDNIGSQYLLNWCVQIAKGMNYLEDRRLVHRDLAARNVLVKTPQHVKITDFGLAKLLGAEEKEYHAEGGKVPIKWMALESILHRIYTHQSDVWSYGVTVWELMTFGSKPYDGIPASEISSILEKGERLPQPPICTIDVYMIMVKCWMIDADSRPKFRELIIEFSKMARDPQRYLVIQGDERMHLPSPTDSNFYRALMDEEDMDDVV
T9 sequence (Q9HCP0 whole entry): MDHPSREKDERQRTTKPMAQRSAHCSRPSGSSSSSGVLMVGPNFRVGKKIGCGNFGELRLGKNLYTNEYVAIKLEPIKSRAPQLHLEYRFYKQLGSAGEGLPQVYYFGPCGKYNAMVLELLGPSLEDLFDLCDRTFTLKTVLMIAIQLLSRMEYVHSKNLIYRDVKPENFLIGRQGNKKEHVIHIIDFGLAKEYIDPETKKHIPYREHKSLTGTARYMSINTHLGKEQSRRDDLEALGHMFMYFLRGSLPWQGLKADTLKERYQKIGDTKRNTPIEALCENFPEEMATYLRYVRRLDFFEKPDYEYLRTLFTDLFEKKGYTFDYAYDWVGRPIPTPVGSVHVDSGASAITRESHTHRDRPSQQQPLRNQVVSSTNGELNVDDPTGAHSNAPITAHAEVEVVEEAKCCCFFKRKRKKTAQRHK
T7 sequence (Q16566 whole entry): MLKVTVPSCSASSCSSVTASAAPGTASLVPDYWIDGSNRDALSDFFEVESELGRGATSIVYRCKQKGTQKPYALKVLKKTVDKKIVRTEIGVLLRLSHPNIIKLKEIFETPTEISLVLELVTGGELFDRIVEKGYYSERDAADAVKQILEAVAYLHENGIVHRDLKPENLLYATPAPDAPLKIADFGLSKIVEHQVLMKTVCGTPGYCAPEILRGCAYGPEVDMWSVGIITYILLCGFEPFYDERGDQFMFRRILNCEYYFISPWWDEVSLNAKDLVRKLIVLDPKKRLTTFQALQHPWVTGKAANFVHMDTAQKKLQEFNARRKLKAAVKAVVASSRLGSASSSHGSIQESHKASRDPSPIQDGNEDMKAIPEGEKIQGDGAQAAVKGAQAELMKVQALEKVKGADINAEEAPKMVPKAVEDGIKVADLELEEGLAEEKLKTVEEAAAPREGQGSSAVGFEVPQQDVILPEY
T26 sequence (O14730 whole entry): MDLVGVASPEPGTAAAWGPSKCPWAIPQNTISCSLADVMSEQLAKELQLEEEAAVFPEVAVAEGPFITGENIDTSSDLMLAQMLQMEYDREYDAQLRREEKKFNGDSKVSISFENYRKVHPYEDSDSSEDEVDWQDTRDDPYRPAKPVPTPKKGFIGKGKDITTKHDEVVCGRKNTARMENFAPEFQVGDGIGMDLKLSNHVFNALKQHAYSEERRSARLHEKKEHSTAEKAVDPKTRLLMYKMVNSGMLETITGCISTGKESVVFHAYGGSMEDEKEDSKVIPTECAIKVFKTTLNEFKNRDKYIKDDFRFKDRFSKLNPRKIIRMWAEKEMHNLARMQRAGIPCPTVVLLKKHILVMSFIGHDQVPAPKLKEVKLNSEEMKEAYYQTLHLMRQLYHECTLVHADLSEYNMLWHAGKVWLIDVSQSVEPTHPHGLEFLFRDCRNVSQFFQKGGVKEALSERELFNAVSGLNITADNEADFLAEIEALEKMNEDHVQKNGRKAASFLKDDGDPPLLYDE

## C#Cc1cccc(Nc2ncnc3cc(OC)c(OCCCN4CCOCC4)cc23)c1 [NRC-2694, N-(3-ethynylphenyl)-7-methoxy-6-[3-(4-morpholinyl)propoxy]-4-quinazolinamine]
ABL1(M351T)
  remaining binding at 10 µM: 37%
ACVR2A
  remaining binding at 10 µM: 92%
BIKE
  remaining binding at 10 µM: 36%
BMPR1A
  remaining binding at 10 µM: 100%
BMPR1B
  remaining binding at 10 µM: 78%
CAMK1G
  remaining binding at 10 µM: 75%
CAMK4
  remaining binding at 10 µM: 92%
CDK7
  remaining binding at 10 µM: 0.55%
CSNK1G1
  remaining binding at 10 µM: 55%
CSNK1G3
  remaining binding at 10 µM: 61%
DAPK2
  remaining binding at 10 µM: 61%
EGFR(L747-T751del, Sins)
  remaining binding at 10 µM: 0%
EGFR(S752-1759del)
  remaining binding at 10 µM: 0%
EPHA2
  remaining binding at 10 µM: 100%
EPHA8
  remaining binding at 10 µM: 66%
IRAK3
  remaining binding at 10 µM: 25%
[1]
  remaining binding at 10 µM: 38%
MAPKAPK5
  remaining binding at 10 µM: 79%
MET
  remaining binding at 10 µM: 33%
NEK6
  remaining binding at 10 µM: 94%
NEK9
  remaining binding at 10 µM: 85%
PAK1
  remaining binding at 10 µM: 74%
PIP5K1A
  remaining binding at 10 µM: 61%
PKMYT1
  remaining binding at 10 µM: 74%
RET(V804L)
  remaining binding at 10 µM: 81%
RIOK3
  remaining binding at 10 µM: 37%
RIPK1
  remaining binding at 10 µM: 100%
[2]
  remaining binding at 10 µM: 49%
SLK
  remaining binding at 10 µM: 0.3%
STK35
  remaining binding at 10 µM: 52%
ULK1
  remaining binding at 10 µM: 100%
YANK2
  remaining binding at 10 µM: 68%
